Results: ChEMBL document CHEMBL3507680, “University of Dundee, Gates Library screen for HepG2 cell viability”

Experiment: Human HepG2 cell viability assay in 384 well format
Format: toxicity, cell-based
Parameters: dose 125 nL, time 70.5 hour; cytotoxicity at 70.5 h: concentration not given beside the values
Details: HepG2 cells, read-out: Inhibition

Compound | cytotoxicity at 70.5 h [%]
CN(Cc1ccc(F)cc1)Cc1nc(-c2cnccn2)no1 | -7.07
O=C(NCc1ccco1)Nc1cccc(S(=O)(=O)C(F)F)c1 | -8.46
COc1ccccc1C(C)CC(=O)N1CCN(S(N)(=O)=O)CC1 (configuration not stated) | -3.69
CC(C)(C)[S+]([O-])CCNC(=O)c1ccc(Cl)c2cccnc12 (configuration not stated) | -6.1
O=C(CNc1ccccc1S(=O)(=O)C(F)F)NCc1ccco1 | -5.76
CC(=O)N1CCN(C2CCCCc3ccccc32)CC1 (configuration not stated) | -1.72
NC(=O)N1CCCN(C2CCCCc3ccccc32)CC1 (configuration not stated) | -1.64
O=C(c1ccc2c(c1)[nH]c(=O)n2C1CCCC1)N1CCC1 | -3.8
O=C(NCC1(O)CCOC1)NCC1(c2ccccc2Cl)CC1 (configuration not stated) | -2.47
O=C(NCC1(O)CCOC1)NCC1(c2ccccc2Cl)CCC1 (configuration not stated) | 0.471
Cn1cc(CCCN2CCN(C(=O)c3cccc(O)c3)CC2)cn1 | -3.56
CC(=O)N1CCCN(C2CCCCc3ccccc32)CC1 (configuration not stated) | -3.31
O=C(c1ccsc1)N1CCN(CC(O)c2cccc(F)c2)CC1 (configuration not stated) | 9.92
Cc1ccccc1C(C)CC(=O)N1CC[C@H](O)C1 (some centres not stated) | -2.39
O=C(NCC1(O)CCOC1)c1ccccc1Cl (configuration not stated) | -3.89
COc1ccc(CC2CCCN2CCCC#N)cc1 (configuration not stated) | -4.33
CC(=O)N1CCN(C2CCc3ccccc32)CC1 (configuration not stated) | -2.55
COCCN1CCC(CNC(=O)C2(C#N)CCCCC2)CC1 | -8.47
O=C(c1cccs1)N1CCN(C(=O)c2ncoc2-c2ccco2)CC1 | 5.95
CC(Oc1ccccc1C#N)C(=O)NC1CC1 (configuration not stated) | -8.65
CN(Cc1c(F)cccc1Cl)C(=O)CN(C)C1CCc2ccccc21 (configuration not stated) | -5.53
Cc1ccsc1CNC(=O)c1ccc(N2CCNC2=O)cc1 | -10.8
CCc1ccc(CNC(=O)c2ccc(N3CCOC3=O)cc2)s1 | 20.2

Compound | cytotoxicity at 70.5 h [%]
CC(NC(=O)NCCc1cnn(C)c1)c1ccc(Cl)s1 (configuration not stated) | -15
N#Cc1ccc(CN(CC(N)=O)C2CCCC2)cc1 | -9.26
Cc1ccc(-c2nc(CN(C)C3CCS(=O)(=O)C3)cs2)o1 (configuration not stated) | -8.59
COc1ccc(N2CCCN(CC(=O)N3CCNC(=O)C3)CC2)cc1 | -8.51
N#Cc1cccnc1N1CCCN(CC(=O)N2CCNC(=O)C2)CC1 | -5.07
CCc1nc(CN2CCCC(Nc3ncnc4ccsc34)C2)no1 (configuration not stated) | -8.27
N#Cc1ccccc1CN(CC(N)=O)C1CCCC1 | -7.95
Cc1nc(CN2CCCC(Nc3ncnc4ccsc34)C2)no1 (configuration not stated) | -9.16
O=C(CCC(=O)c1cccs1)NC1(C(=O)NCC2CC2)CCCC1 | -1.16
O=C1C(Nc2ccc3nccnc3n2)CCN1c1ccccc1F (configuration not stated) | -9.82
O=C1C(Nc2ccc3nccnc3n2)CCN1c1ccccc1 (configuration not stated) | -6.11
C=C(C)COCCNC(=O)Nc1cccc(Cn2nc(C)nc2C)c1 | 19.9
O=C1CC(Nc2ccc3nccnc3n2)CN1c1ccccc1 (configuration not stated) | -2.9
Cc1noc(-c2cccnc2N(C)Cc2cc(C)on2)n1 | -7.15
Cc1csc(C2(NCc3nnc(-c4ccco4)o3)CCCC2)n1 | 0.188
CCn1c(CN(C)CC(F)(F)F)nc2c(F)cccc21 | -0.949
Cc1nccn1C1CCCN(C(=O)Cn2ccc(=O)n(C)c2=O)C1 (configuration not stated) | -14.6
CC(NCCCc1cnn(C)c1)c1ccc(Cl)s1 (configuration not stated) | 2.71
CO[C@H]1CO[C@@]2(CCCN(C(=O)N3CCCC3)C2)C1 | 1.63
Cn1cccc1C(=O)N1CCO[C@@H]2CN(Cc3ccco3)C[C@@H]2C1 | -5.04
CNC(=O)NCC1CCC2(CCN(c3ncccn3)CC2)CO1 (configuration not stated) | -3.53
CCOCC(=O)N1CCc2nc(C)nc(NC(C)C)c2CC1 | 16
CCS(=O)(=O)N1C[C@@H](c2ccccc2)[C@@]2(CCNC2=O)C1 | -4.06

Compound | cytotoxicity at 70.5 h [%]
O=C(c1ccoc1)N1CCC2(CCCN(c3ncc(F)cn3)C2)C1 (configuration not stated) | -1.48
CCN1CCO[C@@H]2CN(C(=O)NCc3ccccc3)CC[C@@H]2C1 | -4.68
COC[C@@]12CCC[C@@H]1CN(C(=O)COc1ccccc1OC)C2 | -3.63
NC(=O)C1Cn2ccnc2C2(CCN(C(=O)c3ccncc3)CC2)O1 (configuration not stated) | -4.78
O=C([C@@H]1CCCO1)N1CCN(Cc2ccncc2)c2ncccc2C1 | -0.675
CN(C)Cc1nc2c(o1)CN(C(=O)c1ccncc1F)C2 | -8.38
CNC(=O)[C@H]1C[C@@H]2CN(C(=O)c3ccc(C)nc3)C[C@@H]2N1C | -15.1
CNC(=O)[C@H]1C[C@@H]2CN(C(=O)c3cncc(C)c3)C[C@@H]2N1C | -16.6
CCN(CC)Cc1nc2c(o1)CN(C(=O)c1ccncc1F)C2 | -4.3
CCOCC1CN(C(=O)CC2=CCCCC2)Cc2nnn(C)c21 (configuration not stated) | -12.8
O=C([C@@H]1CCO[C@@H]2CCN(CC3CC3)C[C@H]21)N1CCCC1 | -2.49
O=C([C@H]1CCCO1)N1CCC2(CC1)Cc1ccccc1CNC2=O | 3.51
Cc1cccc(-c2nnn3c2COC(CNC(=O)N2CCCC2)C3)c1 (configuration not stated) | 1.74
O=C1CO[C@@H]2CNC[C@H]2N1CC1CC1 | 2.73
Cc1ccc2c(c1)C(N1CCOCC1)CC21CCNCC1 (configuration not stated) | -8.36
CCc1cnc(N2C[C@H]3CCCC(N(C)Cc4ccccn4)[C@H]3C2)nc1 (some centres not stated) | -10.1
CC(C)Cn1c2c(ccc1=O)CC(NC(=O)c1ccsc1)CC2 (configuration not stated) | -11.8
CS(=O)(=O)N1CCOCC2(CCN(c3cnccn3)CC2)C1 | -7.29
Cn1cccc1C(=O)N1C[C@H]2CN(CCN3CCCC3)C(=O)[C@H]2C1 | -8.62
Cc1cnc(C(=O)N2CCC3(CCCN(c4nncs4)C3)C2)cn1 (configuration not stated) | -0.974
COc1ccc(C(=O)N2CCN(C(=O)Cn3nccc3C)CC2)cc1 | 1.46
Cc1nc(CN(C)CC2CCCN(CCc3ccc(Cl)cc3)C2)n(C)n1 (configuration not stated) | -19.1
CS(=O)(=O)N1CCc2[nH]cnc2C12CCN(C(=O)c1ccc[nH]1)CC2 | -3.3

Compound | cytotoxicity at 70.5 h [%]
Cc1nc(-c2ccncc2)ncc1C(C)NC(=O)C1=NN(C)C(=O)CC1 (configuration not stated) | -8.41
Nc1cc(N2CCCC(CO)(Cc3ccccc3F)C2)nc(N)n1 (configuration not stated) | 28.8
Cc1ccc(NC2(C(=O)NCc3c(C)n[nH]c3C)CCCC2)cc1 | -5.51
COc1cccc(C(=O)C2CCCN(c3cc(C#N)ccn3)C2)c1 (configuration not stated) | -10.3
O=C(NCCn1cccc1)C1CCN(C2CCCCC2)CC1 | -13.6
COc1ccc(C)cc1-n1c(COC(C)C)n[nH]c1=O | -18.9
O=C(c1cccc(S(=O)(=O)NCCc2nccs2)c1)N1CCOCC1 | -3.1
COc1cccc(CC(=O)N2CCCN(c3ccnc(C)c3)CC2)c1 | -3.97
CCN1CCN(S(=O)(=O)N2CCC(OC)CC2)[C@H]2CS(=O)(=O)C[C@H]21 | -9.02
Cc1ccccc1SC1CCN(C(=O)C2CNCC(=O)N2)CC1 (configuration not stated) | -1.6
CN(CCCc1ccccc1)C(=O)c1cn2c(n1)CNCC2 | -3.6
COc1ccc(N2CCN(Cc3nc(CSC)no3)C(C)C2=O)cc1 (configuration not stated) | -21.8
CCCSc1ccccc1NC(=O)N1CCC(N2CCSCC2)CC1 | 0.648
Cc1cc(-c2c(C)c(-c3cnn(C)c3)nc(N)c2C#N)oc1C | 37.4
Cc1nccc(NCc2cncc3c2CCN(CC2CCOC2)C3)n1 (configuration not stated) | 5.73
CC(C)N(C)Cc1cncc2c1CCN(Cc1ccoc1)C2 | -1.23
CN(C)Cc1cncc2c1CCN(Cc1ccoc1)C2 | -4.55
CCN1CCc2c(CNC(=O)c3nccn3C)cncc2C1 | -10.7
CC(C)N1CCc2c(CNC(=O)c3nccn3C)cncc2C1 | -4.9
Cc1noc(C)c1CN1CCc2ncnc(-c3ccc(F)cc3)c2CC1 | 2.47
CNC(=O)NCC1CCC2(CCN(C(=O)c3cccnc3)CC2)CO1 (configuration not stated) | 3.36
Cc1noc(C)c1CN1CCC2(CC1)C(c1ccccc1)CC(=O)N2C (configuration not stated) | -1.86
CS(=O)(=O)N1CCC2(CC1)CN(CC1CCOC1)c1ccccc12 (configuration not stated) | 5.41

Compound | cytotoxicity at 70.5 h [%]
O=C(c1ccsc1)N1CCO[C@@H]2CN(Cc3ccco3)CC[C@@H]2C1 | 0.973
O=C(Cc1cccc(F)c1)N1CCc2ncnc(NC3CC3)c2CC1 | 1.87
CN1CCO[C@@H]2CN(C(=O)NCc3ccccc3)CC[C@@H]2C1 | 9.51
CCn1ncc2c1C(COC)N(C(=O)c1cscn1)CC2 (configuration not stated) | 6.98
O=C(COC[C@@]12CCC[C@@H]1CN(C1CCCC1)C2)N1CCCC1 | -1.08
CCn1ncc2c1C(COC)N(C(=O)c1cccs1)CC2 (configuration not stated) | 0.803
CCn1ncc2c1C(COC)N(C(=O)c1ccsc1)CC2 (configuration not stated) | -6.73
CCN1C[C@H]2C3(CCN(S(C)(=O)=O)CC3)CC[C@@]2(C(=O)N(C)C)C1 | -9.68
CCN1C[C@H]2C3(CCN(C(=O)NC(C)C)CC3)CC[C@@]2(C(=O)N(C)C)C1 | -8.21
CCN1CCC2(CC1)CC(NC(=O)c1csnn1)c1ccccc1O2 (configuration not stated) | -7.53
CCN1CCOCC12CCN(c1nccs1)CC2 | -13.5
O=C(NCc1cnc2n1CCN(CC1CCOCC1)C2)c1ccno1 | 31.3
OCCOCc1n[nH]c2c1CN(Cc1ccccn1)C2 | -7.78
Cc1cncc(C(=O)N2CCC3(CCCN(c4nncs4)C3)C2)c1 (configuration not stated) | -3.85
O=C(NCc1cnc2n1CCN(Cc1nccs1)C2)c1ccno1 | -3.38
O=C(NCc1ccccn1)[C@@]12CCO[C@@H]1CCN(C1CCCC1)C2 | -1.56
Fc1cccc(CN2CCOC3(COCCN(CC4CC4)C3)C2)c1 (configuration not stated) | -8.93
O=C(c1ccncc1F)N1Cc2nc(CN3CCCCC3)oc2C1 | -8.64
CN1[C@H](Cn2cncn2)C[C@@H]2CN(Cc3ccsc3)CC[C@@H]21 | -3.81
O=C(Nc1cccnc1)[C@H]1CN(Cc2ccco2)C[C@H]2OCC[C@@H]12 | -7.09
